Reference: patent US20120039981A1, “Chewing Gum And Particulate Material For Controlled Release Of Active Ingredients” (priority 2009, published 2012)
Read-outs that look alike come from different tables or passages of the source.

Text: Absorption of nicotine from the oral cavity to the systemic circulation is dependent on the pH of the saliva and the […] of nicotine, which is about 7.8. Assuming a pH of the saliva of 6.8 only about 10% of the nicotine in saliva will be in the free base form. Thus, in order to promote absorption of nicotine in a free base form, which is the form predomi-nantly absorbed through the mucosa, the pH of the saliva must be increased. At a pH of 8.8 about 90% of the nicotine in saliva will then be in the free base form.

## CN1CCCC1c1cccnc1 (centres unmarked) [nicotine, 3-(1-methyl-2-pyrrolidinyl)-pyridine]
Saliva pH 6.8
  nicotine in saliva in the free base form: about 10%
Saliva pH 8.8
  nicotine in saliva in the free base form: about 90%
